Reference: patent publication US20200024278A1, “COMPOSITION COMPRISING ANTIBIOTIC COMPOUND AND AN HETEROCYCLIC COMPOUND AND THEIR USE IN PREVENTING OR TREATING BACTERIAL INFECTIONS” (MUTABILIS, priority 2016, published 2020)

What was measured:
Assay in all cases: MIC, broth microdilution (CLSI), substance alone or ATB combined with compound at 4 or 8 μg/mL
[1] = test system: ECO 190317; format: cell-based, E. coli; details: ECO 190317; for MIC ATB combined with Example: Example @8 μg/ml
In short: (§1)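 Broth microdilution; ca-MHB; 5·10^5 CFU/mL; 35° C, 16-20 h; compound alone or fixed 4/8 μg/mL with antibiotic series; endpoint = no visible growth.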

[2] = test system: ECO UFR39; format: cell-based, E. coli; details: ECO UFR39; for MIC ATB combined with Example: Example @8 μg/ml; for MIC ATB combined with Example compound: compound @8 μg/ml
In short: as §1

[3] = test system: KPN 6299; format: cell-based, K. pneumoniae; details: for MIC ATB combined with Example: Example @8 μg/ml
In short: as §1

[4] = test system: KPN BAA-1898; format: cell-based, K. pneumoniae; details: KPN BAA-1898; for MIC ATB combined with Example: Example @8 μg/ml
In short: as §1

[5] = test system: KPN UFR42; format: cell-based, K. pneumoniae; details: KPN UFR42; for MIC ATB combined with Example: Example @8 μg/ml; for MIC ATB combined with Example compound: compound @8 μg/ml
In short: as §1

[6] = test system: ECL P99; format: cell-based, E. cloacae; details: ECL P99; for MIC ATB combined with Example: Example @8 μg/ml
In short: as §1

[7] = test system: PAE 105250; format: cell-based, P. aeruginosa; details: PAE 105250; for MIC ATB combined with Example: Example @8 μg/ml; for MIC ATB combined with Example compound: compound @8 μg/ml
In short: as §1

[8] = test system: PAE UFR48; format: cell-based, P. aeruginosa; details: PAE UFR48; for MIC ATB combined with Example: Example @8 μg/ml; for MIC ATB combined with Example compound: compound @8 μg/ml
In short: as §1

[9] = test system: PAE UFR90; format: cell-based, P. aeruginosa; details: PAE UFR90; for MIC ATB combined with Example: Example @8 μg/ml; for MIC ATB combined with Example compound: compound @8 μg/ml
In short: as §1

[10] = test system: SAU 29213; format: cell-based, S. aureus; details: for MIC ATB combined with Example / MIC ATB combined with Example compound: SAU 29213; for MIC ATB combined with Example: Example @8 μg/ml; for MIC ATB combined with Example compound: compound @8 μg/ml
In short: as §1

[11] = test system: SPN 49619; format: cell-based, S. pneumoniae; details: SPN 49619; for MIC ATB combined with Example: Example @8 μg/ml; for MIC ATB combined with Example compound: compound @8 μg/ml
In short: as §1

[12] = test system: ABA UFR154; format: cell-based, A. baumannii; details: substance alone
In short: as §1

[13] = test system: ABA UFR155; format: cell-based, A. baumannii; details: substance alone
In short: as §1

O=C1N2CC(n3ccnn3)=CC(C2)N1OS(=O)(=O)[O-].[Na+] (stereo not drawn) [Example 12, sodium [7-oxo-3-(triazol-1-yl)-1,6-diazabicyclo[3.2.1]oct-3-en-6-yl] sulfate]
<0.0010 µg/mL: MIC ATB combined with Example compound ([10]; MIC of CLI) | MIC ATB combined with Example compound ([11]; MIC of CLI)
<0.00012 µg/mL: MIC ATB combined with Example compound ([10]; MIC of RIF)
0.25 µg/mL: MIC ATB combined with Example ([11]; ATB PIP) | MIC ATB combined with Example compound ([11]; MIC of LZD)
<0.031 µg/mL: MIC ATB combined with Example ([1]; ATB ATM) | MIC ATB combined with Example ([1]; ATB FEP) | MIC ATB combined with Example ([1]; ATB MEM) | MIC ATB combined with Example ([1]; ATB PIP) | MIC ATB combined with Example compound ([1]; MIC of CIP, compound @8 μg/ml) | MIC ATB combined with Example ([2]; ATB ATM) | MIC ATB combined with Example ([2]; ATB FEP) | MIC ATB combined with Example ([2]; ATB MEM) | MIC ATB combined with Example ([2]; ATB PIP) | MIC ATB combined with Example compound ([2]; MIC of CIP) | MIC ATB combined with Example compound ([2]; MIC of CPO) | MIC ATB combined with Example ([3]; ATB ATM) | MIC ATB combined with Example ([3]; ATB FEP) | MIC ATB combined with Example ([3]; ATB MEM) | MIC ATB combined with Example ([3]; ATB PIP) | MIC ATB combined with Example compound ([3]; MIC of CIP, compound @8 μg/ml) | MIC ATB combined with Example ([4]; ATB ATM) | MIC ATB combined with Example ([4]; ATB FEP) | MIC ATB combined with Example ([4]; ATB MEM) | MIC ATB combined with Example ([4]; ATB PIP) | MIC ATB combined with Example compound ([4]; MIC of CIP, compound @8 μg/ml) | MIC ATB combined with Example ([5]; ATB ATM) | MIC ATB combined with Example ([5]; ATB FEP) | MIC ATB combined with Example ([5]; ATB MEM) | MIC ATB combined with Example ([5]; ATB PIP) | MIC ATB combined with Example compound ([5]; MIC of CIP) | MIC ATB combined with Example compound ([5]; MIC of CPO) | MIC ATB combined with Example ([6]; ATB ATM) | MIC ATB combined with Example ([6]; ATB FEP) | MIC ATB combined with Example ([6]; ATB MEM) | MIC ATB combined with Example ([6]; ATB PIP) | MIC ATB combined with Example compound ([6]; MIC of CIP, compound @8 μg/ml) | MIC ATB combined with Example ([10]; ATB ATM) | MIC ATB combined with Example ([10]; ATB FEP) | MIC ATB combined with Example ([10]; ATB MEM) | MIC ATB combined with Example ([10]; ATB PIP) | MIC ATB combined with Example compound ([10]; MIC of CIP) | MIC ATB combined with Example compound ([10]; MIC of CPO)
>32 µg/mL: MIC ([7]; substance alone) | MIC ATB combined with Example compound ([8]; MIC of CPO) | MIC ([8]; substance alone) | MIC ATB combined with Example ([9]; ATB PIP) | MIC ([9]; substance alone) | MIC ATB combined with Example ([11]; ATB ATM) | MIC [12] | MIC [13]
>128 µg/mL: MIC ATB combined with Example ([7]; ATB FOS)
<0.125 µg/mL: MIC ATB combined with Example ([1]; ATB FOS) | MIC ATB combined with Example ([2]; ATB FOS) | MIC ATB combined with Example ([3]; ATB FOS) | MIC ATB combined with Example ([4]; ATB FOS) | MIC ATB combined with Example ([5]; ATB FOS) | MIC ATB combined with Example ([6]; ATB FOS) | MIC ATB combined with Example ([10]; ATB FOS)
0.5 µg/mL: MIC ATB combined with Example ([8]; ATB MEM)
0.00049 µg/mL: MIC ATB combined with Example compound ([11]; MIC of RIF)
0.016 µg/mL: MIC ATB combined with Example compound ([11]; MIC of VAN)
0.063 µg/mL: MIC ATB combined with Example compound ([11]; MIC of CIP)
<=0.031 μg/mL: MIC ATB combined with Example ([11]; ATB FEP) | MIC ATB combined with Example ([11]; ATB MEM) | MIC ATB combined with Example compound ([11]; MIC of CPO)
<0.0039 µg/mL: MIC ATB combined with Example compound ([10]; MIC of VAN)
32 µg/mL: MIC ATB combined with Example ([7]; ATB PIP)
8 µg/mL: MIC ATB combined with Example ([7]; ATB ATM) | MIC ATB combined with Example compound ([7]; MIC of CPO) | MIC ATB combined with Example ([8]; ATB ATM) | MIC ATB combined with Example ([9]; ATB FOS) | MIC ATB combined with Example compound ([9]; MIC of CPO) | MIC ([10]; substance alone, SAU 29213 (MSSA 29213)) | MIC ATB combined with Example ([11]; ATB FOS) | MIC ([11]; substance alone)
2 µg/mL: MIC ([4]; substance alone) | MIC ATB combined with Example ([7]; ATB FEP)
4 µg/mL: MIC ([5]; substance alone) | MIC ATB combined with Example compound ([8]; MIC of CIP) | MIC ATB combined with Example ([9]; ATB FEP)
0.031 µg/mL: MIC ATB combined with Example compound ([11]; MIC of DAP)
0.125 µg/mL: MIC ATB combined with Example compound ([7]; MIC of CIP) | MIC ATB combined with Example compound ([11]; MIC of SYN)
<0.0078 µg/mL: MIC ATB combined with Example compound ([10]; MIC of LZD)
16 µg/mL: MIC ATB combined with Example ([8]; ATB FEP) | MIC ATB combined with Example ([8]; ATB FOS) | MIC ATB combined with Example ([8]; ATB PIP) | MIC ATB combined with Example ([9]; ATB ATM)
1 µg/mL: MIC ([1]; substance alone) | MIC ([2]; substance alone) | MIC ([6]; substance alone) | MIC ATB combined with Example ([7]; ATB MEM) | MIC ATB combined with Example ([9]; ATB MEM) | MIC ATB combined with Example compound ([9]; MIC of CIP)
<0.0020 µg/mL: MIC ATB combined with Example compound ([10]; MIC of DAP) | MIC ATB combined with Example compound ([10]; MIC of ERY) | MIC ATB combined with Example compound ([10]; MIC of SYN) | MIC ATB combined with Example compound ([11]; MIC of ERY)
